Source: US10898458B2, “Self-micellizing fatty acids and fatty acid ester compositions and their use in the treatment of disease states” (Micelle BioPharma, Inc., priority 2013, dated 2021)

Key:
[1] = in humans; cited from earlier work
porcine model of SBS [2] = assay: Growth (weight) in neonatal porcine model of SBS; type: in vivo, piglets; conditions: median ± IQR; for Change in weight: final minus starting weight, 4 days at 1 g/kg*day
Method: A study was conducted to evaluate, in an established porcine model of SBS, the systemic absorption and intestinal adaptation capacity of an ethyl ester form of DHA in combination with a surface active agent composition effective to spontaneously form micelles with said fatty acids upon contact with an aqueous media. In certain embodiments, the self-micellizing compositions may further contain at least one additional omega-3 fatty acid (either in the triglyceride, ester, or free fatty acid form), for example EPA or other known omega-3 fatty acids as disclosed herein. In certain embodiments, the self-micellizing compositions may further contain an anti-oxidant, such as tocopherol. In certain embodiments, the self-micellizing compositions may further contain an omega-6 fatty acid (either in the triglyceride, ester, or free fatty acid form), for example arachidonic acid (ARA), linoleic acid (LA), gamma-linolenic acid (GLA) or the omega-6 isomer of DPA, also known as osbond acid. This composition allows for micelle formation independent of the presence of bile salts as compared to a standard […] of DHA without a surface active agent (Control).
(§1) Newborn, crossbred (Hampshire×Landrace×Duroc×Yorkshire) piglets (n=10), were weighed, placed in cages in a heated room (˜30° C.), and were fed with a commonly available sow milk replacement formula. After an overnight fast, piglets underwent surgery for the placement of jugular and intragastric catheters for postoperative parenteral and enteral nutrition, respectively, and small bowel resection surgery. Following a 4-cm midline incision an 80% mid-jejunoileal resection was performed. The total amount of bowel resection was approximated using the following equation: total intestinal length=280 cm×body weight^0.60. A 20% remnant (˜60 cm total per kg BW) remained and was represented equally between proximal jejunum and ileum, representing ˜30 cm each remnant segment per kg bodyweight. ˜45 cm of jejunum distal to the ligament of Treitz and ˜45 cm of ileum proximal to the ileocecal junction were measured using sterile silk ribbon placed along the antimesentric border of the gently stretched small intestine. Intestine not included in the measurement was removed via cauterization. Bowel continuity was restored using an end-to-end jejunoileal anastomosis.
Continuous enteral feeding with a commonly available sow milk replacer formula, also lacking DHA, was slowly introduced 24 h after intestinal resection at 3 mL/kg*h via the intragastric catheter. The volume of enteral feedings was then advanced every 24 h by 1 ml/kg*h until a final enteral volume of 5 mL/kg*h was achieved on postoperative day 3 which represents approximately 50% of full enteral feeding volume and nutrient intake.
(§2) The control group received a standard DHA ethyl ester preparation of substantially pure DHA ethyl ester (>90% DHA ethyl ester).
Piglets were weighed every other day. In addition to calculating a change in weight by subtracting the starting weight at the time of randomization from the final weight, percent weight change and growth velocity (g/kg*d) were also calculated. Percent weight change was calculated by: [((final weight-starting weight)/starting weight)×100]. Growth velocity was calculated by: [(weight change/starting weight)/4 days of treatment].
The primary outcome measure was a change in plasma DHA level in the SBS-treated group versus control group. […] Variable summary statistics are expressed as median±interquartile range (IQR). […]

porcine model of SBS [3] = assay: Small intestine resection and final organ weights, porcine SBS model; type: in vivo, piglets; conditions: at sacrifice after 4 days; median ± IQR
Method: as §1, §2
(§3) Samples of intestinal tissue resected at the time of surgery and remnants at sacrifice were collected from proximal jejunum (proximal to anastomosis) and distal ileum (distal to anastomosis) and morphological measurements of the crypts and villi were measured. Only intact villi and crypts were measured. All measurements were made by the same, single, blinded observer.
(§4) The primary outcome measure was a change in plasma DHA level in the SBS-treated group versus control group. Given the small number of piglets per group, appropriate small group statistical methods were used to evaluate differences in outcome variables. Variable summary statistics are expressed as median±interquartile range (IQR). The Wilcoxon Rank-Sum test, which is appropriate to compare two non-normal distributions as is common in small sample size, was used to compare outcome measures between groups; while the Wilcoxon signed-rank test, which is appropriate for repeated measurements within the same animal, was used to compare paired, before and after surgery outcome measures within groups. Differences in growth measurements and fatty acid levels over time between groups were evaluated using generalized linear mixed models (GLMM) to account for repeated measures and non-Gaussian, non-normal data.

[4] = Longitudinal plasma fatty acid levels, porcine SBS model; type: in vivo, piglets
Excerpt: as §2
Blood samples for systemic fatty acid profiles were obtained on the day of surgery and then twice daily until sacrifice on fourth postoperative day. Plasma fatty acids were isolated and measured.
as §4

porcine model of SBS [5] = assay: Small bowel morphometry (villus height, crypt depth), porcine SBS model; type: in vivo, piglets; conditions: within group
Method: as §2, §3, §4

patients with PSC = conditions: 12-month open-label pilot study, n=23; cited from earlier work
COX-1 = COX-1 (Homo sapiens, UniProt P23219); conditions: enzyme involved in synthesis of TXA2; cited from earlier work
Sequence of COX-1 (P23219 24-599): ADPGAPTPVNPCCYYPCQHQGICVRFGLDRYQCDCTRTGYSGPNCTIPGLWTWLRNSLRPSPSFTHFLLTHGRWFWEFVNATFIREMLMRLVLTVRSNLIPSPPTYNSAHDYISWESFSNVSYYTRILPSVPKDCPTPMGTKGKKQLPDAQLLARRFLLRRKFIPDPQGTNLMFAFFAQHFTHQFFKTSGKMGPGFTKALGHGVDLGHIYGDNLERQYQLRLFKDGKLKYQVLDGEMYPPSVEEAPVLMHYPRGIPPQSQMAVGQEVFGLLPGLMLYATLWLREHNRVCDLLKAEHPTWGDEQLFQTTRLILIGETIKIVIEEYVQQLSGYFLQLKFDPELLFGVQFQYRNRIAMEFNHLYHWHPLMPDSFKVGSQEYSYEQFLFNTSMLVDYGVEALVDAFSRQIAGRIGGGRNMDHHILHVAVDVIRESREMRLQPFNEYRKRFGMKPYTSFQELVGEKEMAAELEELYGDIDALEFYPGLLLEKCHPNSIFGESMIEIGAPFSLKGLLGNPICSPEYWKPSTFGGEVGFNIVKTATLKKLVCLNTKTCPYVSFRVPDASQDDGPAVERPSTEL

[6] = Time 0, at the time of surgery (baseline)
[7] = within 12 hours, after the first enteral dose of DHA
[8] = end of experiment vs time of surgery

## CC/C=C\C/C=C\C/C=C\CCCCCCCC(=O)O [ALA, alpha-linolenic acid]
[1]
  Conversion to DHA: 2-5%
  Conversion to EPA: 5-10%

## CC/C=C\C/C=C\C/C=C\C/C=C\C/C=C\C/C=C\CCC(=O)OCC [Control, DHA ethyl ester]
Porcine model of SBS [2]; 4 days of treatment
  Growth velocity: 13.5 ± 30.1 g/kg/day
  Weight change: 5.4 ± 12.1%
Porcine model of SBS [2]; after 4 days at 1 g/kg*day via intragastric catheter
  Weight at finish: 2594 ± 170 g
Porcine model of SBS [2]
  Change in weight: 132 ± 278 g
Porcine model of SBS [2]; listed as control
  Change in weight: 132 ± 278 g
Porcine model of SBS [3]
  Brain (final weight): 14.0 ± 1.6 g/kg
  Ileum (final length): 17.5 ± 4.7 cm/kg
  Ileum (final weight): 5.3 ± 1.2 g/kg
  Jejunum (final length): 21.2 ± 6.7 cm/kg
  Jejunum (final weight): 5.2 ± 1.4 g/kg
  Liver (final weight): 36.3 ± 2.5 g/kg
[4]; [6]
  Initial plasma ARA level: 11.8±0.5 mol %
  Initial plasma DHA level: 2.3±0.4 mol %
  Initial plasma EPA level: 0.3±0.1 mol %
  Initial plasma LA level: 16.6±1.8 mol %
[4]; third postoperative day
  Plasma ARA level: 8.7±0.8 mol %
[4]; [7]
  Plasma DHA level: 2.5 mol %
  Plasma EPA level: 0.2±0.005 mol %
Porcine model of SBS [5]; [8]
  Villus height of distal ileum, Final vs Day 0: reduced, but not significantly different
  Villus height of proximal jejunum, Final vs Day 0: not significantly different
Porcine model of SBS [5]
  Crypt depth of distal ileum, final vs baseline: increased from baseline
Porcine model of SBS [5]; p<0.05
  Crypt depth of proximal jejunum, final vs baseline: increased

## CC/C=C\C/C=C\C/C=C\C/C=C\C/C=C\C/C=C\CCC(=O)O [DHA, (4Z,7Z,10Z,13Z,16Z,19Z)-docosa-4,7,10,13,16,19-hexaenoic acid]
Patients with PSC
  Alkaline phosphatase: significant decline
  Serum DHA levels: increase

## CC/C=C\C/C=C\C/C=C\C/C=C\C/C=C\CCCCCC(=O)O [Omega-3 DPA, all-cis-7,10,13,16,19-docosapentaenoic acid]
COX-1
  COX-1 activity: potent inhibitor
